{
  "source": "patent US4063025A",
  "about": "“4-Substituted amino-α-aminomethylbenzyl alcohol derivatives” (Yamanouchi Pharmaceutical Co., Ltd., priority 1975, dated 1977)",
  "key": {"guinea pig": {"system": "guinea pig", "test": "Anti asthmatic activity: protection from histamine-induced asthmatic dyspnea, subcutaneous (Parker et al.)", "format": "in vivo", "details": "Cavia porcellus, sc, 0.5 h, read-out: anti-asthmatic activity ED50", "procedure": "The experiments were carried out according to the method of Parker et al., (J. Pharmacol. Exptl. Therap., 118, 359-364 (1956)). A guinea pig was placed in a 11 liters glass chamber and exposed to the spasmogen by means of a nebulizer. […] Samples were administered subcutaneously to animals 30 min. prior the application of the spasmogen.\nED50 was calculated by the method of Litchfield-Wilcoxon (J. Pharmacol. Exptl. Therap., 96, 99-113 (1949) using 4-8 groups and one group consists of 4-8 of guinea pig."}, "β2": {"target": "T1, β2 (Canis lupus familiaris, UniProt P54833)", "T1 construct": "from tissue; host or cells: airways of anesthetized mongrel dogs, in vivo", "T1 sequence (P54833 whole entry)": "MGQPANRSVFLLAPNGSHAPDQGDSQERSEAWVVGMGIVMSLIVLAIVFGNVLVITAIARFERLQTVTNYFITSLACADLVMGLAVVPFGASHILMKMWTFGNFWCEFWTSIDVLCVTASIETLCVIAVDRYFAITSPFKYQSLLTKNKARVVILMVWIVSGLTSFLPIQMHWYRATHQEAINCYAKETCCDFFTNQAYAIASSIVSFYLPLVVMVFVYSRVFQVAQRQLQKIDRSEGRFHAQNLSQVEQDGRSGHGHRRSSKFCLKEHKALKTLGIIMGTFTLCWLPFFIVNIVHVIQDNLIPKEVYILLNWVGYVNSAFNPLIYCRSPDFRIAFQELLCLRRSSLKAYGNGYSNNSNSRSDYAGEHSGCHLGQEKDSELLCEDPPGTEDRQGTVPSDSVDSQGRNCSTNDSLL", "test": "Bronchodilator activity, β2 action: histamine-induced increase in bronchial resistance, intraduodenal (Konzett and Rossler)", "format": "in vivo, Mongorel dogs", "details": "dog, anesthetized dogs, histamine dihydrochloride 10 μg/Kg i.v., peak effect, read-out: β2 action i.d. ED50", "method": "a. Bronchodilator activity, B2 action\nThe experiments were carried out according to the method of Konzett and Rossler (Arch. exp. Path. Pharmakol., 195, 11-14 (1940)). Mongorel dogs were anesthetized with pentobarbital Na. Temporary increase in bronchial resistance, measured with transducer connected to a polygraph, were produced by histamine dihydrochloride, 10 μg/Kg injected rapidly intravenously at intervals of 30 min. The test samples were injected intraduodenally and the time-course of antihistamine activity of the sample (the inhibition rate (%) against the control) was obtained.\nED50 (μg/Kg) values of β-agonists were obtained from the dose response curve drawn according to the peak effect on each dose."}, "β1": {"system": "β1", "test": "Action on heart rate, β1 action, intraduodenal", "format": "in vivo, Mongorel dogs", "method": "b. Action on heartrate, β1 action.\nMongorel dogs were anesthetized with pentobarbital Na. Heart rate (HR) was recorded on polygraph. […] The time-course of ΔHR (the increased HR against the control) was obtained.\nThe dose response curve drawn according to the peak response on each dose and the ED25 beats/min. (μg/Kg), that is the dose of the sample producing 25 beats/min. increase in heart rate was obtained from the curve."}, "β1 /β2": {"system": "β1 /β2", "test": "Broncho-selectivity (ratio of β1/β2)", "format": "in vivo, Mongorel dogs", "details": "intraduodenal, anesthetized dogs; from ED25 heart rate and ED50 bronchodilator", "excerpt": "The broncho-selectivity was obtained by the following equation. [formula]"}, "[1]": {"details": "cited from earlier work"}, "[2]": {"details": "subcutaneous, 30 min. prior to spasmogen (0.1% histamine dihydrochloride spray), guinea pig"}},
  "note": "Counter-ions that a name gives are not always drawn. Like-named read-outs stand apart in the source and are kept apart here.",
  "data": [
    {"smiles": "CCNc1c(Cl)cc(C(O)CNC(C)(C)C)cc1Cl.Cl", "note": "(stereo not drawn) [Ex. 6, 3,5-dichloro-4-ethylamino-α-(tert-butylaminomethyl)-benzyl alcohol mono-hydrochloride]", "values": [
      {"measurement": "ED50", "setting": "guinea pig", "result": "0.125 to 0.25", "unit": "mg/kg"}
    ]},
    {"smiles": "COC(=O)Nc1c(Br)cc(C(O)CNC(C)(C)C)cc1Br", "note": "(stereo not drawn) [Ex. 8, 3,5-dibromo-4-methoxycarbonylamino-α-(tert-butylaminomethyl)benzyl alcohol]", "values": [
      {"measurement": "ED50", "setting": "guinea pig; [2]", "result": 0.125, "unit": "mg/kg"}
    ]},
    {"smiles": "CCOC(=O)Nc1c(Cl)cc(C(O)CNC(C)(C)C)cc1Cl.Cl", "note": "(stereo not drawn) [Ex. 10, 3,5-dichloro-4-ethoxycarbonylamino-α-(tert-butylaminomethyl)-benzyl alcohol hydrochloride]", "values": [
      {"measurement": "ED50", "setting": "β2", "result": 0.0045, "unit": "mg/kg"},
      {"measurement": "β1 action i.d. ED25 beats/min", "setting": "β1; dog, in vivo", "result": 0.0195, "unit": "mg/kg"},
      {"measurement": "broncho-selectivity (Ratio of β1 /β2)", "setting": "β1 /β2", "result": 4.3}
    ]},
    {"smiles": "CC(C)OC(=O)Nc1c(Cl)cc(C(O)CNC(C)(C)C)cc1Cl", "note": "(stereo not drawn) [Ex. 12, 3,5-dichloro-4-isopropoxycarbonylamino-α-(tert-butylaminomethyl)benzyl alcohol]", "values": [
      {"measurement": "ED50", "setting": "guinea pig; [2]", "result": 0.032, "unit": "mg/kg"}
    ]},
    {"smiles": "CC(C)(C)NCC(O)c1cc(Cl)c(NC(=O)OCc2ccccc2)c(Cl)c1.Cl", "note": "(stereo not drawn) [Ex. 13, 3,5-dichloro-4-benzyloxycarbonylamino-α-(tert-butylaminomethyl)benzyl alcohol hydrochloride]", "values": [
      {"measurement": "ED50", "setting": "guinea pig; [2]", "result": 0.125, "unit": "mg/kg"}
    ]},
    {"smiles": "COCCOC(=O)Nc1c(Cl)cc(C(O)CNC(C)(C)C)cc1Cl", "note": "(stereo not drawn) [Ex. 14, 3,5-dichloro-4-(2-methoxyethoxy)carbonylamino-α-(tert-butylaminomethyl)benzyl alcohol hydrochloride]", "values": [
      {"measurement": "ED50", "setting": "guinea pig; [2]", "result": 0.032, "unit": "mg/kg"}
    ]},
    {"smiles": "CNC(=O)Nc1c(Cl)cc(C(O)CNC(C)(C)C)cc1Cl", "note": "(stereo not drawn) [Ex. 15, 3,5-dichloro-4-methylcarbamoylamino-α-(tert-butylaminomethyl)benzyl alcohol]", "values": [
      {"measurement": "ED50", "setting": "guinea pig; [2]", "result": "0.125 to 0.25", "unit": "mg/kg"}
    ]},
    {"smiles": "COC(=O)Nc1c(Cl)cc(C(O)CNC(C)(C)C)cc1Br", "note": "(stereo not drawn) [Ex. 18, 3-bromo-5-chloro-4-methoxycarbonylamino-α-(tert-butylaminomethyl)-benzyl alcohol 1/2 fumarate]", "values": [
      {"measurement": "ED50", "setting": "guinea pig; [2]", "result": 0.063, "unit": "mg/kg"}
    ]},
    {"smiles": "COC(=O)Nc1ccc(C(O)CNC(C)(C)C)cc1Cl", "note": "(stereo not drawn) [Ex. 23, 3-chloro-4-methoxycarbonylamino-α-(N-tert-butylaminomethyl)benzyl alcohol]", "values": [
      {"measurement": "ED50", "setting": "guinea pig; [2]", "result": "0.063 to 0.125", "unit": "mg/kg"}
    ]},
    {"smiles": "CC(C)(C)NCC(O)c1cc(Cl)c(N)c(Cl)c1", "note": "(stereo not drawn) [NAB 365, 1-(4-amino-3,5-dichlorophenyl)-2-tert-butylamino ethanol, reference compound]", "values": [
      {"measurement": "ED50", "setting": "guinea pig", "result": 0.49, "unit": "mg/kg"},
      {"measurement": "ED50", "setting": "β2", "result": 0.0123, "unit": "mg/kg"},
      {"measurement": "β1 action i.d. ED25 beats/min", "setting": "β1; intraduodenal, anesthetized dogs, dose producing 25 beats/min. increase in heart rate", "result": 0.0057, "unit": "mg/kg"},
      {"measurement": "broncho-selectivity (Ratio of β1 /β2)", "setting": "β1 /β2", "result": 0.46},
      {"measurement": "bronchodilator activity by oral administration", "setting": "[1]; in words", "result": "strong bronchodilator activity"},
      {"measurement": "bronchodilator activity, times stronger than Isoproterenol", "setting": "[1]; oral administration, versus Isoproterenol", "result": "about 500 times"},
      {"measurement": "bronchodilator activity, times stronger than Salbutamol", "setting": "[1]; oral administration, versus Salbutamol", "result": "about 100 times"}
    ]}
  ]
}
